Data published in PubChem BioAssay AID720602 (Broad Institute, 2013).

Tested on: LOX IMVI viability, ATP luminescence, 8/24/48 h
Assay: LOX IMVI melanoma cell viability loss, dose response, HRAS target identification, CellTiter-Glo ATP luminescence, 8/24/48 h, dry powder (AID 720602)

Row | Compound | AC50 (measured here: AC50 at 8 h) [nM] | AC50 (measured here: AC50 at 24 h) [nM] | AC50 (measured here: AC50 at 48 h) [nM]
1 | COc1ccc(N(C(=O)CCl)C(C(=O)NCCc2ccccc2)c2cccs2)cc1Cl (stereo not given) | 21 | 25.9 | 122
2 | CC(C)(C)OC(=O)NCCOCCOCCOc1ccc(N(C(=O)CCl)C(C(=O)NCCc2ccccc2)c2cccs2)cc1Cl (stereo not given) | 43.5 | 34.2 | 390
3 | C#CCCCC(=O)NCCOCCOCCOc1ccc(N(C(=O)CCl)C(C(=O)NCCc2ccccc2)c2cccs2)cc1Cl (stereo not given) | 193 | 146 | 2640
4 | Cc1onc(C(=O)N2CCN(C(c3ccc(Cl)cc3)c3ccc(Cl)cc3)CC2)c1[N+](=O)[O-] | 60 | 36.6 | 499
5 | COC(=O)c1ccc([C@@H]2c3[nH]c4ccccc4c3C[C@@H](C(=O)OC)N2C(=O)CCl)cc1 | 15.7 | 10.1 | 187
